In brackets after ≈: the same amount, converted by molar mass.
What was measured:
[1] = Oral bioavailability in human; format: ADME, organism-based; conditions: in vivo
[2] = Oral bioavailability in dog; format: ADME, organism-based, Canis lupus familiaris; conditions: in vivo
[3] = Oral bioavailability in rat; format: ADME, organism-based; conditions: in vivo
[4] = Oral bioavailability in monkey; format: ADME, organism-based, Macaca mulatta; conditions: rhesus monkey, in vivo
Hepatitis C virus = assay: Antiviral activity against Hepatitis C virus genotype 1a harboring NS5A Y93H mutant; format: functional, organism-based, Hepacivirus hominis
[5] = Inhibition of Calcium channel (unknown origin); set-up: species or system Homo sapiens
Escherichia coli [6] = assay: Inhibition of Escherichia coli beta-lactamase at 1 uM relative to control
[7] = Aqueous solubility of compound; format: physicochemical; conditions: aqueous (not further specified)
[8] = Stability of the compound assessed as acid hydrolysis by measuring half-life; format: physicochemical
[9] = Inhibition of Leukotriene B4 production in human blood Polymorphonuclear neutrophil cells; format: functional, tissue-based
[10] = target: Human immunodeficiency virus type 1 protease (Human immunodeficiency virus 1, UniProt Q72874); assay: Inhibition of HIV-1 protease
Plasmodium falciparum = assay: Antiplasmodial activity against Plasmodium falciparum FcM29 assessed as inhibition of plasmodial growth; format: functional, organism-based
[11] = Stability of the compound in 20% aqueous dioxane solution at 30 degreeC assessed as compound hydrolysis by measuring rate constant; format: physicochemical; conditions: buffer
[12] = Cmax in rat plasma at 20 mg/kg, po; format: ADME, organism-based; set-up: dose 20 mg/kg, route po
[13] = Aqueous stability of the compound assessed as acid-catalyzed decomposition by measuring rate constant; format: physicochemical; conditions: buffer
Pasteurella multocida = assay: Antibacterial activity against Pasteurella multocida 59A0067 assessed as inhibition of bacterial growth by microdilution method; format: functional
Escherichia coli [14] = assay: Antibacterial activity against Escherichia coli 51A0150 assessed as inhibition of bacterial growth by microdilution method; format: functional
Staphylococcus aureus = assay: Antibacterial activity against Staphylococcus aureus 01A0785 assessed as inhibition of bacterial growth by microdilution method; format: functional
Candida albicans [15] = assay: Antifungal activity against Candida albicans GS; format: functional, organism-based
Candida albicans [16] = assay: Fungicidal activity against Candida albicans; format: functional
[17] = test system: Human immunodeficiency virus 1; assay: microbe, parasite or virus in culture; conditions: Human immunodeficiency virus 1, LAV
[18] = Stability of the compound at pH 7.4 aqueous phosphate buffer assessed as half-life; format: physicochemical

SMILES: COC(=O)N[C@H](C(=O)N1CCC[C@H]1c1nc(-c2ccc3c(c2)O[C@@H](c2ccccc2)n2c-3cc3cc(-c4c[nH]c([C@@H]5CCCN5C(=O)[C@@H](NC(=O)OC)C(C)C)n4)ccc32)c[nH]1)C(C)C [ELBASVIR]
- bioavailability [1]: 32%
- bioavailability [2]: 35%
- bioavailability [3]: 9%
- bioavailability [4]: 17%
- EC50 (Hepatitis C virus): 2.4 nM

SMILES: C[C@@H](O[C@H]1OCCN(Cc2n[nH]c(=O)[nH]2)[C@H]1c1ccc(F)cc1)c1cc(C(F)(F)F)cc(C(F)(F)F)c1 [APREPITANT]
- IC50 [5]: > 1000 nM

SMILES: O=C(O)[C@H]1/C(=C/CO)O[C@@H]2CC(=O)N21
- inhibition (Escherichia coli [6]): 81%

SMILES: CC(C)[C@H](N)C(=O)OCC(CO)OCn1cnc2c(=O)nc(N)[nH]c21 (some centres not stated) [VALGANCICLOVIR]
- bioavailability [1]: 65%
- solubility [7]: 70 mg/mL (≈ 198000 µM)

SMILES: O=c1[nH]cnc2c1ncn2[C@@H]1O[C@H](CO)C[C@@H]1F
- half-life [8]: > 0.000694 days

SMILES: O=C1OCc2c1cc1cc(OCc3cccc(C4(O)CC5CCC(C4)O5)c3)ccc1c2-c1ccccc1 (configuration not stated)
- IC50 [9]: 8 nM

SMILES: CC(C)(C)NC(=O)[C@@H]1C[C@@H]2CCCC[C@@H]2CN1C[C@@H](O)[C@H](Cc1ccccc1)NC(=O)O[C@H]1CC[C@H]2OCC[C@@H]12
- IC50 [10]: 17 nM

SMILES: CC1(C)COC2(CCC(N[C@H]3CC[C@H](Nc4ccnc5cc(Cl)ccc45)CC3)CC2)OO1 (some centres not stated)
- IC50 (Plasmodium falciparum): 10 nM

SMILES: CC(C)(C)NC(=O)[C@@H]1C[C@@H]2CCCC[C@@H]2CN1C[C@@H](O)[C@H](Cc1ccccc1)NC(=O)O[C@H]1CO[C@H]2CCC[C@H]21
- IC50 [10]: 190 nM

SMILES: Cc1ccc(C2(c3ccc(C)cc3)OCCO2)cc1
- K [11]: 1.7 10^-1/M/s

SMILES: N#Cc1cc(-c2ccoc2)c2ccc(OCc3cccc(C4(O)CC5COC(C4)O5)n3)cc2c1 (configuration not stated)
- bioavailability [2]: 73%
- bioavailability [3]: 26%
- Cmax [12]: 5 µM

SMILES: COC(=O)N[C@H](C(=O)N1CCC[C@H]1c1ncc(-c2cc(F)c3c(c2)O[C@@H](c2cnc(C4CC4)s2)n2c-3cc3cc(-c4cnc([C@@H]5CCCN5C(=O)[C@@H](NC(=O)OC)C(C)C)[nH]4)ccc32)[nH]1)C(C)C [RUZASVIR]
- EC50 (Hepatitis C virus): 0.06 nM

SMILES: CC(C)C1=C[C@H]2OC3(CCC(N[C@H]4CC[C@H](Nc5ccnc6cc(Cl)ccc56)CC4)CC3)OO[C@@]2(C)CC1 (some centres not stated)
- IC50 (Plasmodium falciparum): 18 nM

SMILES: Nc1ncnc2c1ncn2[C@@H]1O[C@H](CO)C[C@H]1F
- half-life [8]: > 0.000694 days

SMILES: c1ccc(C2OCCS2)cc1 (configuration not stated)
- K [13]: 0.0194 min⁻¹

SMILES: CC[C@H]1OC(=O)[C@H](C)[C@@H](O[C@H]2C[C@@](C)(OC)[C@@H](O)[C@H](C)O2)[C@H](C)[C@@H](O[C@@H]2O[C@H](C)C[C@H](N(C)C)[C@H]2O)[C@](C)(O)C[C@@H](C)CN(C)[C@H](C)[C@@H](O)[C@]1(C)O [AZITHROMYCIN]
- MIC (Pasteurella multocida): 0.1 µg/mL (≈ 0.134 µM)
- MIC (Escherichia coli [14]): 1.56 µg/mL (≈ 2.08 µM)
- MIC (Staphylococcus aureus): 0.2 µg/mL (≈ 0.267 µM)

SMILES: CC[C@H](C)C[C@H](C)CCCCCCCCC(=O)N[C@H]1C[C@@H](O)[C@@H](OCCN)NC(=O)[C@@H]2[C@@H](O)CCN2C(=O)[C@H]([C@H](O)CC(N)=O)NC(=O)[C@H]([C@H](O)[C@@H](O)c2ccc(O)cc2)NC(=O)[C@@H]2C[C@@H](O)CN2C(=O)[C@H]([C@@H](C)O)NC1=O
- IC50 (Candida albicans [15]): 10 nM
- MFC (Candida albicans [16]): 0.25 µg/mL (≈ 0.226 µM)

SMILES: CCOC(OCC)(c1ccccc1)c1ccccc1
- K [11]: 4.3 10^-1/M/s

SMILES: O=[N+]([O-])c1ccc(C2OCCS2)cc1 (configuration not stated)
- K [13]: 0.00048 min⁻¹

SMILES: CC1(C)[C@H](C(=O)O)N2C(=O)/C(=C/c3ccccn3)[C@H]2S1(=O)=O
- inhibition (Escherichia coli [6]): 100%

SMILES: Clc1ccc(C2(c3ccc(Cl)cc3)OCCO2)cc1
- K [11]: 3.3 10^-3/M/s

SMILES: Nc1nc(=O)n([C@H]2CS[C@@H](CO)O2)cc1F
- EC50 [17]: 840 nM

SMILES: CCCCC[C@H](O)/C=C/[C@H]1O[C@@H]2O[C@@H]([C@H]2F)[C@@H]1C/C=C\CCCC(=O)O
- half-life [18]: 20 days

SMILES: COC(=O)N[C@H](C(=O)N1CCC[C@H]1c1ncc(-c2ccc3c(c2)OCn2c-3cc3cc(-c4cnc([C@@H]5CCCN5C(=O)[C@@H](NC(=O)OC)C(C)C)[nH]4)ccc32)[nH]1)C(C)C
- EC50 (Hepatitis C virus): 5 nM

SMILES: COc1ccc(C2OCCS2)cc1 (configuration not stated)
- K [13]: 0.778 min⁻¹

SMILES: C1CCC2(CC1)OOC1(O2)C2CC3CC(C2)CC1C3 (configuration not stated)
- bioavailability [3]: < 1%
- solubility [7]: < 0.001 mg/mL

— ChEMBL document CHEMBL5244275, “Geminal Diheteroatomic Motifs: Some Applications of Acetals, Ketals, and Their Sulfur and Nitrogen Homologues in Medicinal Chemistry and Drug Design” (J Med Chem, 2021)
